Values quoted from earlier work as cited in patent US20230233583A1, “USE OF PHYTOCANNABINOIDS FOR TREATING MULTIPLE MYELOMA” (priority 2020, published 2023).

Test system: MM cells
Details: reported in literature (ref. 3); by itself or in synergy with bortezomib; cited from earlier work

For `C=C(C)[C@@H]1CCC(C)=C[C@H]1c1c(O)cc(CCCCC)cc1O` [CBD, cannabidiol], the “growth of MM cells, in words” value is given as “strongly inhibited growth”.
